Data published in patent US11590089B2, “Beta-2 selective adrenergic receptor agonists” (The Board of Trustees of the Leland Stanford Junior …, priority 2017, dated 2023).
Counter-ions that a name gives are not always drawn. Like-named read-outs stand apart in the source and are kept apart here.

What was measured:
[1] = biological target: T1, β1-AR (Homo sapiens, UniProt P08588); experiment: radioligand binding assay, β1-AR, [3H]CGP12177; details: values given as a range are from screening experiments with a low number of repeats
Description: (§1) The binding affinities of exemplary compounds of interest at β1AR and β2AR were evaluated in a binding assay.
Target sequence in this assay (P08588 whole entry): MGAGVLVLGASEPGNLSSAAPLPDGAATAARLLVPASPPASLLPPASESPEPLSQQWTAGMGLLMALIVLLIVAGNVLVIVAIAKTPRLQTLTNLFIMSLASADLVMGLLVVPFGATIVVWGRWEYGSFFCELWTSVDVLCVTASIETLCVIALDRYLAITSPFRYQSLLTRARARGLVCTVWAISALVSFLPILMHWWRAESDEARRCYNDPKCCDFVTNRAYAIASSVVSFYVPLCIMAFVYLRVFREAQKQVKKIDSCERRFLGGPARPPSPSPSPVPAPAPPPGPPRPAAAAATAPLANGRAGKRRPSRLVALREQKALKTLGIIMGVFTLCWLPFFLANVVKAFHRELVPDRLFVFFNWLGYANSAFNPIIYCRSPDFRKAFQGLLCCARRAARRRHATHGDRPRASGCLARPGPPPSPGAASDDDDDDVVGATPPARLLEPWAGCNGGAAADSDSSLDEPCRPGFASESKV

[2] = biological target: T2, β2-AR (Homo sapiens, UniProt P07550); experiment: radioligand binding assay, β2-AR, [3H]CGP12177
Description: as §1
Target sequence in this assay (P07550 whole entry): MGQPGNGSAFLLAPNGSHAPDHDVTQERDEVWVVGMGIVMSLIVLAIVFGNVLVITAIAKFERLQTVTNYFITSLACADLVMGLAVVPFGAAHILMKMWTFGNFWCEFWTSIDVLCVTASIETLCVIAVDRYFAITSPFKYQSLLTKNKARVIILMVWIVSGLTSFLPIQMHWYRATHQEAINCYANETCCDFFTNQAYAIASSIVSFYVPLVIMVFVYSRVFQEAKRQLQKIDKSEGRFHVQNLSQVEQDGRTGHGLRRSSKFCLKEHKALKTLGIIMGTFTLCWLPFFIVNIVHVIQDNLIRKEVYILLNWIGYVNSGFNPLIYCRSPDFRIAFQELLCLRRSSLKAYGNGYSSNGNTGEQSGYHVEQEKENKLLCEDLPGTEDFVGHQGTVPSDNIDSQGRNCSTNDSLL

[3] = biological target: T1, β1-AR; experiment: β-arrestin-2 recruitment assay at β1-AR; type: cell-based; details: for β-arrestin-2 recruitment β1-AR Emax: relative to norepinephrine
Target sequence in this assay (P08588 whole entry): as the sequence (P08588 whole entry) above
Target sequence in this assay (P32121 whole entry partner): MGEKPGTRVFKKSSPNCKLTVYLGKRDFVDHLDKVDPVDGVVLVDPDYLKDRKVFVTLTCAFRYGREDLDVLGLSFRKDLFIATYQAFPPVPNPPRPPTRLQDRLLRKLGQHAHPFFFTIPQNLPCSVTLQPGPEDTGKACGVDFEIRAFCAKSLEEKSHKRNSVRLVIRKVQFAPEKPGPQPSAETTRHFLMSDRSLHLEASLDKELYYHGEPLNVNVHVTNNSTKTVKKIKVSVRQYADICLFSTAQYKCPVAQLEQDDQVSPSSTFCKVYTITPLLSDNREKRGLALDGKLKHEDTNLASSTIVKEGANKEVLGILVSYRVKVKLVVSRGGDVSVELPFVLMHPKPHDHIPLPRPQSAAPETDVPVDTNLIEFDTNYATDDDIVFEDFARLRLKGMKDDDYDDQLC

[4] = biological target: T2, β2-AR; experiment: β-arrestin-2 recruitment assay at β2-AR; type: cell-based; details: for EC50: ranges from screening experiments with a low number of repeats; for β-arrestin-2 recruitment β2-AR Emax: relative to norepinephrine
Target sequence in this assay (P07550 whole entry): as the sequence (P07550 whole entry) above
Target sequence in this assay (P32121 whole entry partner): as the sequence (P32121 whole entry partner) above

[5] = biological target: T3, α2A-AR (Homo sapiens, UniProt P08913); experiment: radioligand binding assay, α2A-AR, [3H]RX821002; details: radioligand [3H]RX821002; values given as a range are from screening experiments with a low number of repeats
T3 sequence (P08913 1-465): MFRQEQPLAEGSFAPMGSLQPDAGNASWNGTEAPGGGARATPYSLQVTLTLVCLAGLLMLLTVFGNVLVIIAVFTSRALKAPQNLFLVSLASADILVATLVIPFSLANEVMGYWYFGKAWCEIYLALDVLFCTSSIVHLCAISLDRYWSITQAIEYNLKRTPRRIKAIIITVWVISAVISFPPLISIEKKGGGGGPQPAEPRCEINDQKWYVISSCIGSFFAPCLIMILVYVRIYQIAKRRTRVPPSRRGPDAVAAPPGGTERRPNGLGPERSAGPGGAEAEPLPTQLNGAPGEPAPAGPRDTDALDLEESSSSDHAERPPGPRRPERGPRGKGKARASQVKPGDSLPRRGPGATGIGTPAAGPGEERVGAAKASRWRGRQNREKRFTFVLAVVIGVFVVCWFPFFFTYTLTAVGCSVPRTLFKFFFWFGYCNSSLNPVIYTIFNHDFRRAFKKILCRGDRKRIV

[6] = biological target: T4, •1A-AR (Homo sapiens, UniProt P35348); experiment: radioligand binding assay, α1A-AR, [3H]prazosin
T4 sequence (P35348 1-466): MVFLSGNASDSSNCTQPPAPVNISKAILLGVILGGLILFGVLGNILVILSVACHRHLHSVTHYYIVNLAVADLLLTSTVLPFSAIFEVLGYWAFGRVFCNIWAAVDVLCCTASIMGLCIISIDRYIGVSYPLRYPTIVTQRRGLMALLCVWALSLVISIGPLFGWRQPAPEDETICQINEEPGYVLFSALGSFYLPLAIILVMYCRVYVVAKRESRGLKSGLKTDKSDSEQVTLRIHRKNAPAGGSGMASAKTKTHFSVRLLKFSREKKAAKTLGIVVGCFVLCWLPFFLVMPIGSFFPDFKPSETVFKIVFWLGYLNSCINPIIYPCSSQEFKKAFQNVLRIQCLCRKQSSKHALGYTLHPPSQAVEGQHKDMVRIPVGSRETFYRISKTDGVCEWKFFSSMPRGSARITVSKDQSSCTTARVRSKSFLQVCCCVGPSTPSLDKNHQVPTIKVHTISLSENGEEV

[7] = radioligand [3H]CGP12177, read-out: Ki β1-AR [3H]CGP12177
[8] = radioligand [3H]CGP12177, values given as a range are from screening experiments with a low number of repeats, read-out: Ki β2-AR [3H]CGP12177
[9] = n.d. = could not be determined because of lack of activity, read-out: β-arrestin-2 recruitment β2-AR EC50
[10] = Ki β1-AR [3H]CGP12177, radioligand [3H]CGP12177
[11] = β-arrestin-2 recruitment β2-AR EC50, n.d. = could not be determined because of lack of activity
[12] = radioligand [3H]prazosin, values given as a range are from screening experiments with a low number of repeats, read-out: Ki •1A-AR [3H]prazosin
[13] = n.d. = could not be determined because of lack of activity, ranges from screening experiments with a low number of repeats, read-out: β-arrestin-2 recruitment β1-AR EC50

| SMILES | Ki [1, 7] | Ki [2, 8] | β-arrestin-2 recruitment β1-AR Emax [3] | EC50 [4, 9] | β-arrestin-2 recruitment β2-AR Emax [4] | also measured |
| --- | --- | --- | --- | --- | --- | --- |
| CNC1CCc2cc(O)c(O)cc2C1 (racemic) [AS LM31] | 44 µM | 80000 nM | <5 % norepinephrine | 12000 nM | 22 % norepinephrine |  |
| CNC1CCc2c(ccc(O)c2O)C1 (racemic) [AS LM33] | 90 µM | 46000 nM | <10 % norepinephrine | 2100 nM | 125 % norepinephrine |  |
| CC(C)N[C@H]1CCc2cc(O)c(O)cc2[C@H]1O (relative stereo) [JS 3-71, cis-2-(isopropylamino)-1,2,3,4-tetrahydronaphthalene-1,6,7-triol trifluoroacetate] | > 50 µM | > 50000 nM |  |  |  |  |
| CC(C)N[C@@H]1CCc2cc(O)c(O)cc2[C@H]1O (relative stereo) [JS 3-89, trans-2-(Isopropylamino)-1,2,3,4-tetrahydronaphthalene-1,6,7-triol trifluoroacetate] | > 50 µM | > 50000 nM |  |  |  |  |
| NC1CCc2c(ccc(O)c2O)C1 (single isomer, unassigned) [AS LM27] | 46 µM | 7600 nM | <5 % norepinephrine | 2100 nM | 84 % norepinephrine |  |
| NC1CCc2c(ccc(O)c2O)C1 (single isomer, unassigned) [AS LM28] | > 100 µM | 29000 nM | <10 % norepinephrine | 11000 nM | 77 % norepinephrine |  |
| CC(C)N[C@@H]1CCc2c(ccc(O)c2O)[C@H]1O [AS424A, (R,R)-1,5,6-trihydroxy-N-isopropyl-1,2,3,4-tetrahydronaphthalen-2-aminium TFA] |  |  | 82 % norepinephrine |  | 103 % norepinephrine | Ki [1, 10]: 2.1 µM; selectivity for β2-AR over β1-AR [2]: high selectivity; Ki ([2]; read-out: Ki β2-AR [3H]CGP12177): 32 nM; Ki [5]: 71 µM; EC50 [3]: 1.2 µM; EC50 [4, 11]: 24 nM |
| CC(C)N[C@H]1CCc2c(ccc(O)c2O)[C@H]1O [AS424B, (R,S)-1,5,6-trihydroxy-N-isopropyl-1,2,3,4-tetrahydronaphthalen-2-aminium TFA] |  |  |  |  | 91 % norepinephrine | Ki [1, 10]: 24 µM; Ki ([2]; Ki β2-AR [3H]CGP12177): 450 nM; EC50 [4, 11]: 350 nM |
| CN[C@@H]1CCc2c(ccc(O)c2O)[C@H]1O [AS443, (5R,6R)-6-(methylamino)-5,6,7,8-tetrahydronaphthalene-1,2,5-triol] | 38 µM | 140 nM | 60 % norepinephrine | 26 nM | 112 % norepinephrine | Ki [6, 12]: 17 µM; Ki [5]: 13 µM; EC50 [3, 13]: 38 µM |
| N[C@@H]1CCc2c(ccc(O)c2O)[C@H]1O [AS446, (5R,6R)-6-amino-5,6,7,8-tetrahydronaphthalene-1,2,5-triol×TFA] | 16 µM | 680 nM | 56 % norepinephrine |  | 107 % norepinephrine | Ki [6]: 18 µM; Ki [5]: 15 µM; EC50 [3, 13]: 18 µM; EC50 [4, 11]: 100 nM |
| N[C@H]1CCc2cc(O)c(O)cc2C1 [AS LM15] | 31 µM |  | <5 % norepinephrine |  | <5 % norepinephrine |  |
| N[C@@H]1CCc2cc(O)c(O)cc2C1 [AS LM16] | 83 µM | 76000 nM | <5 % norepinephrine |  | <5 % norepinephrine |  |
| O=C(O)C(F)(F)F.Oc1ccc2c(c1O)CC[C@H](NC1CCCC1)[C@H]2O [JS 3-51, (1 S,2S)-6-(cyclopentylamino)-5,6,7,8-tetrahydronaphthalene-1,2,5-triol trifluoroacetate] | 27 µM | 240 nM |  | 120 nM | 93 % norepinephrine |  |
| Oc1ccc2c(c1O)CC[C@H](NC1CCCC1)[C@@H]2O [JS 3-55, (1R,2S)-6-(cyclopentylamino)-5,6,7,8-tetrahydronaphthalene-1,2,5-triol trifluoroacetate] | > 50 µM | > 20000 nM |  |  |  |  |
| Oc1ccc2c(c1O)CC[C@@H](NC1CCCC1)[C@H]2O [JS 3-65, (1 S,2R)-6-(Cyclopentylamino)-5,6,7,8-tetrahydronaphthalene-1,2,5-triol trifluoroacetate] | > 50 µM | 2500 nM |  |  |  |  |
| CC(C)N[C@H]1CCc2c(ccc(O)c2O)[C@@H]1O [JS 3-97] |  |  |  |  |  | Ki [1, 10]: > 50 µM; Ki ([2]; Ki β2-AR [3H]CGP12177): 370 nM |
| CC(C)N[C@@H]1CCc2c(ccc(O)c2O)[C@@H]1O [JS 3-99] |  |  |  |  | 100 % norepinephrine | Ki [1, 10]: 49 µM; Ki ([2]; Ki β2-AR [3H]CGP12177): 1900 nM; EC50 [4, 11]: 1200 nM |
| O=C(O)C(F)(F)F.Oc1ccc2c(c1O)CC[C@@H](NC1CCCC1)[C@@H]2O [JS 3-159, (1R,2R)-6-(Cyclopentylamino)-5,6,7,8-tetrahydronaphthalene-1,2,5-triol trifluoroacetate] | 7.1 µM | 25 nM |  | 18 nM | 97 % norepinephrine |  |
| Oc1ccc2c(c1O)CC[C@@H](NCCCF)[C@@H]2O [LM 75, (5R,6R)-6-((3-fluoropropyl)amino)-5,6,7,8-tetrahydronaphthalene-1,2,5-triol] | 7.5 µM | 97 nM | 90 % norepinephrine | 25 nM | 111 % norepinephrine | Ki [6]: 23 µM; Ki [5]: 18 µM; EC50 [3, 13]: 10 µM |
| Oc1ccc2c(c1O)CC[C@@H](NCCF)[C@@H]2O [LM 80, (5R,6R)-6-((2-fluoroethyl)amino)-5,6,7,8-tetrahydronaphthalene-1,2,5-triol] | 7 µM | 280 nM | 81 % norepinephrine | 66 nM | 110 % norepinephrine | Ki [6, 12]: > 90 µM; Ki [5]: 30 µM; EC50 [3, 13]: 3 µM |
| NC[C@H](O)c1ccc(O)c(O)c1 [noradrenaline, reference compound] |  |  | 100 % norepinephrine |  | 100 % norepinephrine |  |
